{
  "source": "patent US11103605B2",
  "about": "“PET-imaging immunomodulators” (BRISTOL-MYERS SQUIBB COMPANY, priority 2016, dated 2021)",
  "experiment": "Stability of reconstituted [^18F]-FPPEGA in 1× PBS buffer",
  "format": "physicochemical",
  "settings": "37° C.",
  "experimental": "An aqueous [^18F]-Fluoride solution (2.0 ml, 33.3 GBq/900 mCi) was purchased from P.E.T. Net® Pharmaceuticals in West Point PA and directly transferred to a Sep-Pak light QMA [The Sep-Pak light QMA cartridge was pre-conditioned sequentially with 5 ml of 0.5 M potassium bicarbonate, 5 ml of deionized water, and 5 ml of MeCN before use.] Upon completion of this transfer, the aqueous [^18F] fluoride was released from the QMA Sep-Pak by the sequential addition of potassium carbonate (15 mg/ml; 0.1 ml) followed by a mixture of potassium carbonate (30 mg/ml, 0.1 ml), 4,7,13,16,21,24-hexaoxa-1,10-diazabicyclo[8.8.8]hexacosane (15 mg, 0.04 mmol) and 1.2 ml of MeCN. The solvent was evaporated under a gentle stream of nitrogen at 90° C. and vacuum. Azeotropic drying was repeated twice with 1 ml portions of acetonitrile to generate the anhydrous K.2.2.2/K[^18F]F complex. […] The entire contents of the crude reaction mixture was then transferred, loaded, and purified using reverse phase HPLC under the following conditions: HPLC Column: Luna C18 250×10 Solvent A: 0.1% TFA in DI water; solvent B: 0.1% TFA in acetonitrile at a flow rate of 4.6 ml/minute using isocratic method 32% B while the UV was monitored at 280 nm. […]",
  "data": [
    {"compound": "[N-]=[N+]=NCCOCCOCCOCCOc1cccnc1[18F]", "note": "[[^18F]-3-(2-(2-(2-(2-azidoethoxy)ethoxy)ethoxy)ethoxy)-2-fluoropyridine]", "values": [
      {"measurement": "stable in 100% 1× PBS buffer", "value": "over 1 hour"}
    ]}
  ]
}
